Patent publication US20230085307A1, “PYRIDAZINONE COMPOUND AND HERBICIDE” (NISSAN CHEMICAL CORPORATION, priority 2019, published 2023)

Each molecule was assayed on Japanese bulrush (assay: Test Example 1: herbicidal activity, application before weed generation under submerged conditions (Table 16, symbol B)). Details: amount of applied herbicide 320 g/ha.
Type: in vivo, Japanese bulrush (Schoenoplectus juncoides)
How it was run: (§1)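 Submerged Wagner pots (alluvial soil, 4 cm water) sown with weed seeds and planted with 2.5-leaf rice seedlings; emulsifiable concentrate diluted in water applied to water surface on sowing day. Held in greenhouse at 25-30 °C; injury scored 0-5 by herbicidal rate after three weeks.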

Row | Compound | Herbicidal effect, B: Japanese bulrush
1 | Cc1nn(C)c(=O)c(-c2c(-c3ccc(OCC(F)(F)F)cc3)oc3ccccc23)c1O [8-005] | 5 (Herbicidal rate of 90% or more (almost completely withered))
2 | CSCCOc1ccc(-c2oc3ccccc3c2-c2c(O)c(C)nn(C)c2=O)cc1 [8-008] | 5 (Herbicidal rate of 90% or more (almost completely withered))

What follows are molecules tested on oval-leafed pondweed (assay: Test Example 1: herbicidal activity, application before weed generation under submerged conditions (Table 16, symbol C)). Details: amount of applied herbicide 320 g/ha.
Type: in vivo, oval-leafed pondweed (Monochoria vaginalis)
How it was run: as §1

Row | Compound | Herbicidal effect, C: oval-leafed pondweed
3 | Cc1nn(C)c(=O)c(-c2c(-c3ccc(OCC(F)(F)F)cc3)oc3ccccc23)c1O [8-005] | 4 (Herbicidal rate of 70% or more and less than 90%)
4 | CSCCOc1ccc(-c2oc3ccccc3c2-c2c(O)c(C)nn(C)c2=O)cc1 [8-008] | 4 (Herbicidal rate of 70% or more and less than 90%)

What follows are molecules tested on Japanese bulrush (assay: Test Example 2: herbicidal activity, application during weed generation under submerged conditions (Table 17, symbol B)). Details: AAH 320 g/ha; application during weed generation, submerged conditions.
Type: in vivo, Japanese bulrush (Schoenoplectus juncoides)
How it was run: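 Effect on each weed is rated three weeks post-treatment, using the same scoring criteria as the preceding test. Plants grow from mixed-sown seed in flooded alluvial soil (4 cm water) at 25° C. to 30° C., and are treated at one to two leaves with diluted emulsion dropped onto the water.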

Row | Compound | herbicidal effect rating, B: Japanese bulrush
5 | Cc1nn(C)c(=O)c(-c2c(-c3ccc(OCC(F)(F)F)cc3)oc3ccccc23)c1O [8-005] | 3 (Herbicidal rate of 40% or more and less than 70%)
6 | CSCCOc1ccc(-c2oc3ccccc3c2-c2c(O)c(C)nn(C)c2=O)cc1 [8-008] | 3 (Herbicidal rate of 40% or more and less than 70%)

These molecules were tested on Chinese sprangletop (assay: Test Example 3: herbicidal effect by foliage application, Wagner pot (Table 18, symbol D)). Details: amount of applied herbicide 320 g/ha.
Type: in vivo, chinese sprangletop (Leptochloa chinensis)
How it was run: (§2)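 Plants were sown in alluvial soil held under 0.1–0.5 cm standing water and grown 14 days in a greenhouse at 25–30 °C. An emulsifiable formulation, water-diluted to the set dose, was then sprayed onto the foliage, and effects were scored three weeks later using previously defined criteria.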

Row | Compound | Herbicidal effect on D (Chinese sprangletop), foliage application
7 | Cc1nn(C)c(=O)c(-c2c(-c3ccc(OCC(F)(F)F)cc3)oc3ccccc23)c1O [8-005] | 4 (Herbicidal rate of 70% or more and less than 90%)
8 | CSCCOc1ccc(-c2oc3ccccc3c2-c2c(O)c(C)nn(C)c2=O)cc1 [8-008] | 4 (Herbicidal rate of 70% or more and less than 90%)

These molecules were tested on rice flat sedge (assay: Test Example 3: herbicidal effect by foliage application, Wagner pot (Table 18, symbol E)). Details: amount of applied herbicide 320 g/ha.
Type: in vivo, rice flat sedge (Cyperus iria)
How it was run: as §2

Row | Compound | Herbicidal effect on E (rice flat sedge), foliage application
9 | Cc1nn(C)c(=O)c(-c2c(-c3ccc(OCC(F)(F)F)cc3)oc3ccccc23)c1O [8-005] | 4 (Herbicidal rate of 70% or more and less than 90%)
10 | CSCCOc1ccc(-c2oc3ccccc3c2-c2c(O)c(C)nn(C)c2=O)cc1 [8-008] | 4 (Herbicidal rate of 70% or more and less than 90%)

Each molecule was assayed on green foxtail (assay: Test Example 4: herbicidal effect by soil treatment (Table 19, symbol G)). Details: amount of applied herbicide 320 g/ha.
Type: in vivo, green foxtail (Setaria viridis)
How it was run: (§3)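 Soil-surface application: an emulsion agent diluted with water to the predetermined dose is sprayed uniformly over seeds lying under roughly 1.5 cm of sterilized diluvial soil. Boxes stay in a greenhouse at 25° C. to 30° C. Three weeks later, each species is graded on previously defined criteria.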

Row | Compound | G: green foxtail, herbicidal effect grade
11 | Cc1nn(C)c(=O)c(-c2c(-c3ccc(OCC(F)(F)F)cc3)oc3ccccc23)c1O [8-005] | 4 (Herbicidal rate of 70% or more and less than 90%)
12 | CSCCOc1ccc(-c2oc3ccccc3c2-c2c(O)c(C)nn(C)c2=O)cc1 [8-008] | 1 (Herbicidal rate of 5% or more and less than 20%)

These molecules were tested on wild oat (assay: Test Example 4: herbicidal effect by soil treatment (Table 19, symbol I)). Details: amount of applied herbicide 320 g/ha.
Type: in vivo, wild oat (Avena fatua)
How it was run: as §3

Row | Compound | I: wild oat, herbicidal effect grade
13 | Cc1nn(C)c(=O)c(-c2c(-c3ccc(OCC(F)(F)F)cc3)oc3ccccc23)c1O [8-005] | 0 (Herbicidal rate of 5% or less (almost no effect))
14 | CSCCOc1ccc(-c2oc3ccccc3c2-c2c(O)c(C)nn(C)c2=O)cc1 [8-008] | 0 (Herbicidal rate of 5% or less (almost no effect))

What follows are molecules tested on Italian ryegrass (assay: Test Example 4: herbicidal effect by soil treatment (Table 19, symbol K)). Details: amount of applied herbicide 320 g/ha.
Type: in vivo, Italian ryegrass (Lolium multiflorum)
How it was run: as §3

Row | Compound | K: Italian ryegrass, herbicidal effect grade
15 | Cc1nn(C)c(=O)c(-c2c(-c3ccc(OCC(F)(F)F)cc3)oc3ccccc23)c1O [8-005] | 5 (Herbicidal rate of 90% or more (almost completely withered))
16 | CSCCOc1ccc(-c2oc3ccccc3c2-c2c(O)c(C)nn(C)c2=O)cc1 [8-008] | 4 (Herbicidal rate of 70% or more and less than 90%)

Each molecule was assayed on windgrass (assay: Test Example 4: herbicidal effect by soil treatment (Table 19, symbol L)). Details: amount of applied herbicide 320 g/ha.
Type: in vivo, windgrass (Apera spica-venti)
How it was run: as §3

Row | Compound | L: windgrass, herbicidal effect grade
17 | Cc1nn(C)c(=O)c(-c2c(-c3ccc(OCC(F)(F)F)cc3)oc3ccccc23)c1O [8-005] | 0 (Herbicidal rate of 5% or less (almost no effect))
18 | CSCCOc1ccc(-c2oc3ccccc3c2-c2c(O)c(C)nn(C)c2=O)cc1 [8-008] | 0 (Herbicidal rate of 5% or less (almost no effect))

These molecules were tested on redroot pigweed (assay: Test Example 4: herbicidal effect by soil treatment (Table 19, symbol N)). Details: amount of applied herbicide 320 g/ha.
Type: in vivo, redroot pigweed (Amaranthus retroflexus)
How it was run: as §3

Row | Compound | N: redroot pigweed, herbicidal effect grade
19 | Cc1nn(C)c(=O)c(-c2c(-c3ccc(OCC(F)(F)F)cc3)oc3ccccc23)c1O [8-005] | 5 (Herbicidal rate of 90% or more (almost completely withered))
20 | CSCCOc1ccc(-c2oc3ccccc3c2-c2c(O)c(C)nn(C)c2=O)cc1 [8-008] | 4 (Herbicidal rate of 70% or more and less than 90%)

The molecules below were run on chickweed (assay: Test Example 4: herbicidal effect by soil treatment (Table 19, symbol P)). Details: amount of applied herbicide 320 g/ha.
Type: in vivo, common chickweed (Stellaria media)
How it was run: as §3

Row | Compound | P: chickweed, herbicidal effect grade
21 | Cc1nn(C)c(=O)c(-c2c(-c3ccc(OCC(F)(F)F)cc3)oc3ccccc23)c1O [8-005] | 2 (Herbicidal rate of 20% or more and less than 40%)
22 | CSCCOc1ccc(-c2oc3ccccc3c2-c2c(O)c(C)nn(C)c2=O)cc1 [8-008] | 5 (Herbicidal rate of 90% or more (almost completely withered))

The molecules below were run on southern crabgrass (assay: Test Example 5: herbicidal effect by foliage application, plastic box (Table 20, symbol F)). Details: foliage application, 320 g/ha, three weeks after application.
Type: in vivo, southern crabgrass (Digitaria ciliaris)
How it was run: (§4)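 Sow seeds spot-wise in sterilized diluvial soil; cover with ~1.5 cm soil. Grow 14 days in greenhouse, 25° C. to 30° C. Spray foliage with emulsion diluted to predetermined amount. Rate effect after 3 weeks.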

Row | Compound | herbicidal effect on southern crabgrass (F)
23 | Cc1nn(C)c(=O)c(-c2c(-c3ccc(OCC(F)(F)F)cc3)oc3ccccc23)c1O [8-005] | 5 (Herbicidal rate of 90% or more (almost completely withered))
24 | CSCCOc1ccc(-c2oc3ccccc3c2-c2c(O)c(C)nn(C)c2=O)cc1 [8-008] | 5 (Herbicidal rate of 90% or more (almost completely withered))

Each molecule was assayed on wild oat (assay: Test Example 5: herbicidal effect by foliage application, plastic box (Table 20, symbol I)). Details: foliage application, 320 g/ha, three weeks after application.
Type: in vivo, wild oat (Avena fatua)
How it was run: as §4

Row | Compound | herbicidal effect on wild oat (I)
25 | Cc1nn(C)c(=O)c(-c2c(-c3ccc(OCC(F)(F)F)cc3)oc3ccccc23)c1O [8-005] | 0 (Herbicidal rate of 5% or less (almost no effect))
26 | CSCCOc1ccc(-c2oc3ccccc3c2-c2c(O)c(C)nn(C)c2=O)cc1 [8-008] | 5 (Herbicidal rate of 90% or more (almost completely withered))

Each molecule was assayed on windgrass (assay: Test Example 5: herbicidal effect by foliage application, plastic box (Table 20, symbol L)). Details: foliage application, 320 g/ha, three weeks after application.
Type: in vivo, windgrass (Apera spica-venti)
How it was run: as §4

Row | Compound | herbicidal effect on windgrass (L)
27 | Cc1nn(C)c(=O)c(-c2c(-c3ccc(OCC(F)(F)F)cc3)oc3ccccc23)c1O [8-005] | 3 (Herbicidal rate of 40% or more and less than 70%)
28 | CSCCOc1ccc(-c2oc3ccccc3c2-c2c(O)c(C)nn(C)c2=O)cc1 [8-008] | 4 (Herbicidal rate of 70% or more and less than 90%)

These molecules were tested on lambsquarters (assay: Test Example 5: herbicidal effect by foliage application, plastic box (Table 20, symbol O)). Details: foliage application, 320 g/ha, three weeks after application.
Type: in vivo, lambsquarters (Chenopodium album)
How it was run: as §4

Row | Compound | herbicidal effect on lambsquarters (O)
29 | Cc1nn(C)c(=O)c(-c2c(-c3ccc(OCC(F)(F)F)cc3)oc3ccccc23)c1O [8-005] | 5 (Herbicidal rate of 90% or more (almost completely withered))
30 | CSCCOc1ccc(-c2oc3ccccc3c2-c2c(O)c(C)nn(C)c2=O)cc1 [8-008] | 3 (Herbicidal rate of 40% or more and less than 70%)

The molecules below were run on persian speedwell (assay: Test Example 5: herbicidal effect by foliage application, plastic box (Table 20, symbol R)). Details: foliage application, 320 g/ha, three weeks after application.
Type: in vivo, Persian speedwell (Veronica persica)
How it was run: as §4

Row | Compound | herbicidal effect on persian speedwell (R)
31 | Cc1nn(C)c(=O)c(-c2c(-c3ccc(OCC(F)(F)F)cc3)oc3ccccc23)c1O [8-005] | 5 (Herbicidal rate of 90% or more (almost completely withered))
32 | CSCCOc1ccc(-c2oc3ccccc3c2-c2c(O)c(C)nn(C)c2=O)cc1 [8-008] | 5 (Herbicidal rate of 90% or more (almost completely withered))
